Assays:
ACAT = ACAT inhibitory activity (labelled cholesteryl ester formation from [1-14C]oleoyl-CoA, liver microsome fractions); format: biochemical; details: compound at 10^-7 M; rabbit liver microsomes; percent inhibition of formation of labelled cholesteryl esters
Description: 1. ACAT inhibitory activity
The enzyme preparation, ACAT was prepared from liver microsome fractions of male rabbits according to the method of E. E. Largis et al. (Journal of Lipid Research, Vol. 30, pages 681-690, 1989). The activity was calculated by assaying the amount of the labelled cholesteryl esters formed from [1-^14 C]oleoyl-CoA and endogenous cholesterol according to the method of Kazuichi NATORI et al. (Japan J. Pharmacol., Vol. 42, pages 517-523, 1986).
The result is shown in Table 1, in which percent inhibition of the formation of the labelled cholesteryl esters with a compound added at 10^-7 M is indicated as index for the ACAT inhibitory activity.

Human LDL = test: Antioxidative activity (inhibition of MDA formation in cupric sulfate-induced peroxidation of LDL); format: biochemical; details: compound 10^-5 M, cupric sulfate 5×10^-6 M, 5 hrs, percent inhibition of MDA formation vs control
Description: 2. Antioxidative activity
Human LDL was incubated in the presence of cupric sulfate (5×10^-6 M) and in the presence or absence of a compound (10^-5 M) for 5 hrs. After the incubation, the peroxidation of low-density lipoproteins (LDL) is evaluated by the formation of malondialdehyde (MDA), which is a sort of lipid peroxides according to the method of Simon J. T. Mao et al. (J. Med. Chem., Vol. 34, pages 298-302, 1991). Activity of the compound is shown by percent inhibition of the MDA formation as compared with control.

Compound: CCCCCCCNC(=O)Nc1ccccc1NC(=O)c1cc(C(C)(C)C)c(O)c(C(C)(C)C)c1 [Example 6, N-[2-(3-heptylureido)phenyl]-3,5-di-t-butyl-4-hydroxybenzamide]
- ACAT Inhibition (%) (ACAT): 79%
- Antioxidant Activity (%) (Human LDL): 82%

Compound: CC(C)(C)c1cc(C(=O)Nc2ccccc2NC(=O)NCC(c2ccccc2)c2ccccc2)cc(C(C)(C)C)c1O [Example 7, N-[2-(3-(2,2-diphenylethyl)ureido]phenyl]-3,5-di-t-butyl-4-hydroxybenzamide]
- ACAT Inhibition (%) (ACAT): 86%
- Antioxidant Activity (%) (Human LDL): 75%

Compound: CC(C)(C)c1cc(C(=O)Nc2ccccc2NC(=O)N(Cc2ccccc2)Cc2ccccc2)cc(C(C)(C)C)c1O [Example 8, N-[2-(3,3-dibenzylureido)phenyl]-3,5-di-t-butyl-4-hydroxybenzamide]
- ACAT Inhibition (%) (ACAT): 85%
- Antioxidant Activity (%) (Human LDL): 83%

Compound: CC(C)(C)c1cc(C(=O)Nc2ccccc2NC(=O)NC23CC4CC(CC(C4)C2)C3)cc(C(C)(C)C)c1O [Example 11, N-[2-(3-adamantyl)ureido]phenyl-3,5-di-t-butyl-4-hydroxybenzamide]
- ACAT Inhibition (%) (ACAT): 73%

Compound: CC(C)(C)c1cc(C(=O)Nc2ccccc2NC(=O)N(Cc2ccccc2)Cc2ccccn2)cc(C(C)(C)C)c1O [Example 12, N-[2-[3-benzyl-3-(2-pyridylmethyl)ureido]phenyl]-3,5-di-t-butyl-4-hydroxybenzamide]
- ACAT Inhibition (%) (ACAT): 79%

Compound: CCCCCCCN(C)C(=O)Nc1ccccc1NC(=O)c1cc(C(C)(C)C)c(O)c(C(C)(C)C)c1 [Example 13, N-[2-(3-heptyl-3-methyl)ureido]phenyl-3,5-di-t-butyl-4-hydroxybenzamide]
- ACAT Inhibition (%) (ACAT): 88%

Compound: CCCCCCCNC(=O)Nc1ccccc1NCc1cc(C(C)(C)C)c(O)c(C(C)(C)C)c1 [Example 14]
- ACAT Inhibition (%) (ACAT): 81%
- Antioxidant Activity (%) (Human LDL): 96%

Compound: COc1ccc(NC(=O)N(Cc2ccccc2)Cc2ccccc2)c(NC(=O)c2cc(C(C)(C)C)c(O)c(C(C)(C)C)c2)c1 [Example 20, N-[2-(3,3-dibenzylureido)-5-methoxyphenyl]-3,5-di-t-butyl-4-hydroxybenzamide]
- ACAT Inhibition (%) (ACAT): 99%

Compound: CCCCCCCN(C)C(=O)Nc1ccc(OC)cc1NC(=O)c1cc(C(C)(C)C)c(O)c(C(C)(C)C)c1 [Example 21, N-[2-(3-heptyl-3-methylureido)-5-methoxyphenyl]-3,5-di-t-butyl-4-hydroxybenzamide]
- ACAT Inhibition (%) (ACAT): 93%

Compound: CCCCCCCNC(=O)Nc1ccc(F)cc1NC(=O)c1cc(C(C)(C)C)c(O)c(C(C)(C)C)c1 [Example 30, N-[5-fluoro-2-(3-heptylureido)phenyl]-3,5-di-t-butyl-4-hydroxybenzamide]
- ACAT Inhibition (%) (ACAT): 78%
- Antioxidant Activity (%) (Human LDL): 79%

Compound: CCCCCCCN(C)C(=O)Nc1ccc(F)cc1NC(=O)c1cc(C(C)(C)C)c(O)c(C(C)(C)C)c1 [Example 32, N-[5-fluoro-2-(3-heptyl-3-methylureido)phenyl]-3,5-di-t-butyl-4-hydroxybenzamide]
- ACAT Inhibition (%) (ACAT): 95%

Compound: CCCCCCCN(C)C(=O)Nc1cc(Cl)c(Cl)cc1NC(=O)c1cc(C(C)(C)C)c(O)c(C(C)(C)C)c1 [Example 35, N-[4,5-dichloro-2-(3-heptyl-3-methylureido)phenyl]-3,5-di-t-butyl-4-hydroxybenzamide]
- ACAT Inhibition (%) (ACAT): 71%

Compound: CCCCCCCNC(=O)Nc1cc(OC)ccc1NC(=O)c1cc(C(C)(C)C)c(O)c(C(C)(C)C)c1 [Example 36, N-[2-(3-heptylureido)-4-methoxyphenyl]-3,5-di-t-butyl-4-hydroxybenzamide]
- ACAT Inhibition (%) (ACAT): 77%
- Antioxidant Activity (%) (Human LDL): 92%

— patent US5576335A, “Urea derivatives and their use as ACAT inhibitors” (Nisshin Flour Milling Co., Ltd., priority 1994, dated 1996)
